The source of these data is BindingDB's records for doi:10.7270/Q2T72FVT (University of Pittsburgh, 2007).

A word on the IC50: it is the midpoint of a concentration-inhibition curve. High values mean lower potency, low ones higher potency.

For the assay, the target named is Serine/threonine-protein kinase PLK1 (Homo sapiens, UniProt P53350). Put plainly: Plk1 polo box domain binding inhibitors, dose response, biochemical, fluorescence polarization (AID 877). Background: Polarisation of emitted light reports the rotation of a fluorescent probe.
Chain of Serine/threonine-protein kinase PLK1 (P53350 whole entry, the tested form may be a part): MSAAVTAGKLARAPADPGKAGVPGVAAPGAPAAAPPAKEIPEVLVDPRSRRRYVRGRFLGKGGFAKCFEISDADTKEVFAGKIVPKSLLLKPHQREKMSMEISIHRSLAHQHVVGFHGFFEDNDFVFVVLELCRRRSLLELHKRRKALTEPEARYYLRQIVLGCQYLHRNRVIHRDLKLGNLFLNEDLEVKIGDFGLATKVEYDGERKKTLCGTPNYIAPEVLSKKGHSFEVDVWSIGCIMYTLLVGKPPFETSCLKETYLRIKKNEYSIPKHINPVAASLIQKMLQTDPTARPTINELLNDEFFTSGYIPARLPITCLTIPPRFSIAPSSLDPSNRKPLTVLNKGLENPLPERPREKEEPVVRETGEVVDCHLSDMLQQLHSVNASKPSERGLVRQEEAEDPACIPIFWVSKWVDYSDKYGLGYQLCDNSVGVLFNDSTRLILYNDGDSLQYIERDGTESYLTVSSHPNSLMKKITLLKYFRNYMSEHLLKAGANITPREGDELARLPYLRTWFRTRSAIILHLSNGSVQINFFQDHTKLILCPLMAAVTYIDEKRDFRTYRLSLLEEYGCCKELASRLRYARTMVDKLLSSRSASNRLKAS

`O=C(NC1(O)C(=O)c2ccccc2C1=O)c1ccccc1` [N-(2-hydroxy-1,3-dioxo-2-indenyl)benzamide] yielded a 50% inhibitory concentration (IC50) greater than 50 µM.

Take `O=C1C(=O)c2ccccc2-c2ccccc21`: the IC50 came out at 10.1 µM.

`O=C(Nc1cccn(Cc2c(Cl)cccc2Cl)c1=O)c1c(Cl)cccc1Cl` [2,6-dichloro-N-[1-(2,6-dichlorobenzyl)-2-keto-3-pyridyl]benzamide] yielded an IC50 greater than 50 µM.

Take `Cc1cc(C)n(-c2nnc3n2N=C(c2ccccc2)CS3)n1` [3-(3,5-dimethyl-1-pyrazolyl)-6-phenyl-7H-[1,2,4]triazolo[3,4-b][1,3,4]thiadiazine]: the 50% inhibitory concentration (IC50) is greater than 50 µM.

`CC1(C)CC(=O)C=C(NCc2ccncc2)C1` [5,5-dimethyl-3-(4-pyridylmethylamino)cyclohex-2-en-1-one]: the IC50 is greater than 50 µM.

On to `Cc1oc2c(c1C(=O)c1ccccc1)C(=O)C(=O)c1ccccc1-2` [2-methyl-3-(phenylcarbonyl)benzo[g][1]benzofuran-4,5-dione], for which the IC50 turned out to be 43.6 µM.

The molecule `COc1ccc2c3c(cccc13)NN=C2C` [6-Methoxy-3-methyl-1H-benzo[de]cinnoline] registered an IC50 greater than 50 µM.

`c1ccc(NCc2nnc3n2CCCCC3)cc1` [MLS000057041] came in with an IC50 greater than 50 µM.

`O=C(NCCc1ccccc1)/C(=C\c1ccc([N+](=O)[O-])cc1)NC(=O)c1ccccc1` [MLS000575866] displayed an IC50 greater than 50 µM.

In the case of `COc1ccc(C(C)C)cc1S(=O)(=O)Nc1ccc(Cl)cn1` [MLS000071127], the IC50 was greater than 50 µM.

With `COc1ccccc1C1SCCN1S(=O)(=O)c1cccc(C(F)(F)F)c1` (configuration not stated) [2-(2-Methoxy-phenyl)-3-(3-trifluoromethyl-benzenesulfonyl)-thiazolidine], the IC50 is greater than 50 µM.

The molecule `Cc1ccc(C(=O)Nc2cnc3sc(C)nn3c2=O)cc1` [4-methyl-N-(2-methyl-5-oxidanylidene-[1,3,4]thiadiazolo[3,2-a]pyrimidin-6-yl)benzamide] registered an IC50 greater than 50 µM.

For the molecule `Cc1ccc(OCC(=O)Nc2ccc(N3CCOCC3)cc2)cc1` [2-(4-methylphenoxy)-N-(4-morpholin-4-ylphenyl)acetamide], the IC50 was greater than 50 µM.

As to `COc1cccc(OC)c1C(=O)N1CCN(c2ccccn2)CC1` [(2,6-dimethoxyphenyl)-(4-pyridin-2-ylpiperazin-1-yl)methanone], the IC50 was greater than 50 µM.

As to `O=C(CN1C(=O)c2ccccc2C1=O)N1CCN(c2nnc(-c3ccccc3)c3ccccc23)CC1` [2-[2-keto-2-[4-(4-phenylphthalazin-1-yl)piperazino]ethyl]isoindoline-1,3-quinone], the half-maximal inhibitory concentration (IC50) is greater than 50 µM.

In turn, `C=CCn1c2ccccc2c2nnc(SCc3ccc4nonc4c3)nc21` [5-[(5-prop-2-enyl-[1,2,4]triazino[5,6-b]indol-3-yl)sulfanylmethyl]-2,1,3-benzoxadiazole] registered an IC50 greater than 50 µM.

For `O=C1C(=C2C(=O)c3ccccc3C2=O)Nc2ccccc21` [MLS000071738], the IC50 was greater than 50 µM.

`COC(=O)c1ccccc1NC1=CC(=NS(=O)(=O)c2cccs2)c2ccccc2C1=O` [methyl 2-[[(4E)-1-oxidanylidene-4-thiophen-2-ylsulfonylimino-naphthalen-2-yl]amino]benzoate] registered an IC50 greater than 50 µM.

`COc1ccc(S(=O)(=O)N(C)CC(=O)Nc2ccccc2C(F)(F)F)cc1` [2-[(4-methoxyphenyl)sulfonyl-methyl-amino]-N-[2-(trifluoromethyl)phenyl]acetamide] registered an IC50 greater than 50 µM.

`O=C(CC1C(=O)NCCN1C(=S)Nc1ccccc1)Nc1ccc2c(c1)OCCO2` (configuration not stated) [2-[1-(anilinocarbonothioyl)-3-oxo-2-piperazinyl]-N-(2,3-dihydro-1,4-benzodioxin-6-yl)acetamide]: the IC50 is greater than 50 µM.

As to `CCc1nc2cc(Cl)c(Cl)cc2[nH]1` [MLS000064722], the IC50 was greater than 50 µM.

Regarding `CN(C)c1ccc(C(=O)Nc2nc3c(s2)CCCC3)cc1` [4-(dimethylamino)-N-(4,5,6,7-tetrahydro-1,3-benzothiazol-2-yl)benzamide], the half-inhibitory concentration (IC50) was greater than 50 µM.

`O=C1CCC(C(=O)O)(c2ccccc2)C1` (configuration not stated) [3-Oxo-1-phenyl-cyclopentanecarboxylic acid]: the IC50 is greater than 50 µM.

In turn, `Cc1ccccc1Oc1ncnc2oc(-c3ccccc3)cc12` [4-(2-methylphenoxy)-6-phenyl-furo[2,3-d]pyrimidine] came in with an IC50 greater than 50 µM.

For `CS(=O)(=O)N1CCN(C/C=C/c2ccccc2)CC1` [1-(methylsulfonyl)-4-(3-phenyl-2-propen-1-yl)piperazine], the 50% inhibitory concentration (IC50) was greater than 50 µM.

For `CCn1ncc(CN2CCN(C(=O)Nc3ccccc3C(=O)OC)CC2)c1C` [2-[[4-[(1-ethyl-5-methyl-pyrazol-4-yl)methyl]piperazine-1-carbonyl]amino]benzoic acid methyl ester], the half-maximal inhibitory concentration (IC50) was greater than 50 µM.

As to `O=c1[nH]cc(COCc2ccccc2)c(=O)[nH]1`, the half-maximal inhibitory concentration (IC50) was greater than 50 µM.

In the case of `CCC(=O)N1CCN(c2ccc(NC(=O)c3ccc4c(c3)OCO4)cc2)CC1` [Benzo[1,3]dioxole-5-carboxylic acid [4-(4-propionyl-piperazin-1-yl)-phenyl]-amide], the IC50 is greater than 50 µM.

In turn, `Cc1ccc(NC(=O)C2CC=CCC2C(=O)N2CCCCC2)cc1` (configuration not stated) [6-(Piperidine-1-carbonyl)-cyclohex-3-enecarboxylic acid p-tolylamide] came in with an IC50 greater than 50 µM.

On to `CC1CCCC(NC2CCCCNC2=O)C1` (configuration not stated) [3-[(3-methylcyclohexyl)amino]-2-azepanone], for which the IC50 was greater than 50 µM.

Take `Nc1cc(-c2ccc(Br)cc2)nn1S(=O)(=O)c1cccc2nsnc12` [2-(2,1,3-benzothiadiazol-4-ylsulfonyl)-5-(4-bromophenyl)-3-pyrazolamine]: the IC50 is greater than 50 µM.

Take `CCC(C)c1ccc(NC(=O)C2CC2)cc1` (configuration not stated) [MLS000110184]: the IC50 is greater than 50 µM.

On to `Cn1cc(SCC(=O)Nc2ccc3c(c2)OCCO3)c2ccccc21` [MLS000529783], for which the IC50 is greater than 50 µM.

`CC(=O)N(N=C1Sc2ccccc2C1=O)c1ccccc1C` [N-(2-methylphenyl)-N-[(3-oxo-1-benzothiophen-2-ylidene)amino]acetamide]: the IC50 came out at 37.3 µM.

With `Nc1cc2nsnc2cc1Br` [(6-bromopiazthiol-5-yl)amine], the IC50 is 40.8 µM.

With `CCn1ccc(C(=O)Nc2ccc(N(C)C(C)=O)cc2)n1` [MLS000043435], the IC50 is greater than 50 µM.

The molecule `O=C(NC1(C(F)(F)F)NC(=O)N(CC2CCCCC2)C1=O)c1ccco1` (configuration not stated) [MLS000040678] displayed a half-inhibitory concentration (IC50) greater than 50 µM.

In turn, `O=C(Cc1ccc(Cl)cc1)NCCN1CCCC1` [2-(4-Chloro-phenyl)-N-(2-pyrrolidin-1-yl-ethyl)-acetamide] yielded an IC50 greater than 50 µM.

The molecule `CC(=O)N(N=C1Sc2ccccc2C1=O)c1cccc(C)c1` [N-(3-methylphenyl)-N-[(3-oxidanylidene-1-benzothiophen-2-ylidene)amino]ethanamide] showed an IC50 of 32.9 µM.

As for `CCC(Sc1nc2nnc(C)c-2c(N)n1-c1cccc(Cl)c1)C(=O)NCCOC` (configuration not stated) [2-[4-amino-5-(3-chlorophenyl)-3-methylpyrazolo[3,4-d]pyrimidin-6-yl]sulfanyl-N-(2-methoxyethyl)butanamide], the IC50 is greater than 50 µM.

`Cc1cccc(-n2c(CCn3nc(C)c([N+](=O)[O-])c3C)n[nH]c2=S)c1` [3-(2-{4-nitro-3,5-dimethyl-1H-pyrazol-1-yl}ethyl)-4-(3-methylphenyl)-5-sulfanyl-4H-1,2,4-triazole] showed an IC50 greater than 50 µM.

The molecule `CC(C)OCCCNC(=O)c1ccc(NC(=O)C2CCCO2)cc1` (configuration not stated) [MLS000086701] gave a half-maximal inhibitory concentration (IC50) greater than 50 µM.

`CN1C(=O)N(C)C(=O)C2(Sc3ccccc3C2=O)C1=O` [1',3'-dimethylspiro[benzothiophene-2,5'-hexahydropyrimidine]-2',3,4',6'-diquinone] had an IC50 greater than 50 µM.

`CNC(=O)CC(C(=O)O)c1ccc(OCC(C)C)cc1` (configuration not stated) [2-(4-Isobutoxy-phenyl)-N-methyl-succinamic acid] showed an IC50 greater than 50 µM.

Molecule `Cc1ccccc1NS(=O)(=O)c1cc(C(=O)NCc2ccco2)ccc1C` [MLS000052108] registered an IC50 greater than 50 µM.

For `OCC(CO)(CO)N=Cc1cc(Br)ccc1O` [(6E)-4-bromanyl-6-[[[2-(hydroxymethyl)-1,3-bis(oxidanyl)propan-2-yl]amino]methylidene]cyclohexa-2,4-dien-1-one], the IC50 is greater than 50 µM.

Turning to `Cc1ccc2c(c1)CC1(CN2C)C(=O)NC(=O)N(c2ccccc2C)C1=O` (configuration not stated) [1',6'-dimethyl-1-(2-methylphenyl)spiro[1,3-diazinane-5,3'-2,4-dihydroquinoline]-2,4,6-trione], the IC50 was greater than 50 µM.

`CCOCCCNC(=O)CCCOc1ccccc1` [MLS000088375] gave an IC50 greater than 50 µM.

In turn, `Cc1cccc(C)c1NC1=NC(=S)N(c2ccccc2)C12CCOC(C)(C)C2` (configuration not stated) [4-(2,6-dimethylanilino)-7,7-dimethyl-1-phenyl-8-oxa-1,3-diazaspiro[4.5]dec-3-ene-2-thione] registered an IC50 greater than 50 µM.

For the molecule `COc1ccc(Cn2c(=O)sc3ccccc32)cc1` [3-(4-Methoxy-benzyl)-3H-benzothiazol-2-one], the IC50 was greater than 50 µM.

Consider `O=C(Nc1nc2ccccc2s1)c1cc2c(s1)-c1ccccc1OC2` [MLS000522634], for which the 50% inhibitory concentration (IC50) is greater than 50 µM.

In the case of `CCOC(=O)c1cc2n(c1N)-c1ccccc1C2=O` [1-amino-4-keto-pyrrol[1,2-a]indole-2-carboxylic acid ethyl ester], the half-inhibitory concentration (IC50) turned out to be 19.9 µM.

Molecule `O=C(NC(NC(=S)Nc1ccc(Cl)cc1Cl)C(Cl)(Cl)Cl)c1cccc([N+](=O)[O-])c1` (configuration not stated) [3-nitro-N-[2,2,2-trichloro-1-({[(2,4-dichlorophenyl)amino]carbonothioyl}amino)ethyl]benzamide] had an IC50 greater than 50 µM.

`O=NCc1cc(Br)ccc1OCC(=O)O` [2-[4-bromanyl-2-(hydroxyiminomethyl)phenoxy]ethanoic acid] gave an IC50 greater than 50 µM.

`Cc1nc2c(=O)n(C)c(=O)nc-2n(C)n1` [1,3,6-Trimethyl-1H-pyrimido[5,4-e][1,2,4]triazine-5,7-dione] came in with an IC50 of 14.6 µM.

`CCC(=O)Nc1ccccc1C(=O)NC1CCCCC1` [MLS000538265] yielded a half-inhibitory concentration (IC50) greater than 50 µM.

Turning to `C=CCSc1nccc(-c2cc(Cl)sc2Cl)n1` [2-(allylsulfanyl)-4-(2,5-dichloro-3-thienyl)pyrimidine], the 50% inhibitory concentration (IC50) is greater than 50 µM.
